Experimental data reported in US12129246B1, “Hydroquinazoline derivatives for the treatment of a disease or disorder” (Novartis AG, priority 2023, dated 2024).
Read-outs that look alike come from different tables or passages of the source.

Assays:
[1] = target: T1, human NPR1 (Homo sapiens, UniProt P16066); experiment: Cellular cGMP production assay, human NPR1 expressing CHO-K1 cells (CisBio HTRF); type: cell-based; conditions: for AC50: cGMP production, 30 min at 37° C., 12-point dose-response from 30 μM; for Human NPR1 Amax (% of ANP): maximum cGMP production as percentage of the maximum cGMP produced with ANP
T1 construct: host or cells: CHO-K1
T1 sequence (P16066 33-1061): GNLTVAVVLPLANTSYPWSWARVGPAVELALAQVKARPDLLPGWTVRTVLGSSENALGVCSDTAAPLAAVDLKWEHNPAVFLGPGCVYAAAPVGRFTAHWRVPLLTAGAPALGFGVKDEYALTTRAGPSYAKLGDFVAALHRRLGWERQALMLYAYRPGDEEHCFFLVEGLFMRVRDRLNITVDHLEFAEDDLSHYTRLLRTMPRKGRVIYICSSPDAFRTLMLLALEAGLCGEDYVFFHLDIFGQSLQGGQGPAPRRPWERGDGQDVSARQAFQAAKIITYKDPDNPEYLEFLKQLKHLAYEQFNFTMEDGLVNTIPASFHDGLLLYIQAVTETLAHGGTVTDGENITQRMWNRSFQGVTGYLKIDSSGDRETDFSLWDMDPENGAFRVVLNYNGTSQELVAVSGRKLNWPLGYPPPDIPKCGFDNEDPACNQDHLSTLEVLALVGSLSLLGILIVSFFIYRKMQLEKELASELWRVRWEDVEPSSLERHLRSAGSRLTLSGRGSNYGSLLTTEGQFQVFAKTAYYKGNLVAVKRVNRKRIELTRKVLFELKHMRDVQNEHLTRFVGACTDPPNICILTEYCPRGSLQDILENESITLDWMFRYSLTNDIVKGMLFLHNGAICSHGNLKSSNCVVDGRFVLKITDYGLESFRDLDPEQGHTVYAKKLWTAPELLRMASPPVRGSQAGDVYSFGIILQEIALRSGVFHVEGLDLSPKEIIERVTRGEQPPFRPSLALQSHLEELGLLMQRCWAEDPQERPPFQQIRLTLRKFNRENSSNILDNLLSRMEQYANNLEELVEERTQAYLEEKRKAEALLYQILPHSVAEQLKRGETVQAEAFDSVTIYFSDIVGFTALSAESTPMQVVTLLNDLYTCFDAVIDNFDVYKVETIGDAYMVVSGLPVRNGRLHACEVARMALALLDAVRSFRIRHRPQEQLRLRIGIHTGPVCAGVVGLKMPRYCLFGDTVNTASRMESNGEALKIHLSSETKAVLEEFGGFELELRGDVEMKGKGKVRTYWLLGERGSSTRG
Method in brief: (§1)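 Step 1: add buffer (PBS, 0.1% BSA, 1 mM IBMX) and compounds, 3-fold series from 30 μM top. Step 2: incubate 30 min, 37 °C. Step 3: lyse; HTRF reagents 1 h at RT.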

[2] = target: monkey NPR1 (Macaca fascicularis, UniProt A0A7N9DBT9); experiment: Cellular cGMP production assay, monkey NPR1 expressing CHO-K1 cells (CisBio HTRF); type: cell-based; conditions: for Monkey NPR1 Amax (% of ANP): maximum cGMP production as percentage of the maximum cGMP produced with ANP
Chain of monkey NPR1 (A0A7N9DBT9 entry or part of it): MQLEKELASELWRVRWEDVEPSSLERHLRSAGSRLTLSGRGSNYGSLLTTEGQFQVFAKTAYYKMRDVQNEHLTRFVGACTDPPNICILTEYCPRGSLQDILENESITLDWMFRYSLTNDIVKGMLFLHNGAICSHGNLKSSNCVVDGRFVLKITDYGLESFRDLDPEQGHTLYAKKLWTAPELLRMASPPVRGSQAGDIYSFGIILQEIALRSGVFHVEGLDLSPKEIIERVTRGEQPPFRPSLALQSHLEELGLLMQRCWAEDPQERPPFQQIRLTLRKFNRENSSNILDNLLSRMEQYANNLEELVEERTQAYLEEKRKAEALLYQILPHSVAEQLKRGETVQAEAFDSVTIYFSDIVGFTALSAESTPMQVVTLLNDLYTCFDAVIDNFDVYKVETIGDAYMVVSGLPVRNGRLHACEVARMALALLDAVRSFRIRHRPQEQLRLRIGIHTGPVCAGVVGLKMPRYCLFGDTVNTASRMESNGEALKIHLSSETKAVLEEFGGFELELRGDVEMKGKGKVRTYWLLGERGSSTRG
Method in brief: as §1

[3] = cGMP production, monkey NPR1 CHO-K1 cells, 30 min at 37° C., 12-point dose-response from 30 μM, read-out: Monkey NPR1 AC50

Structure (SMILES) | AC50 [1] | Human NPR1 Amax (% of ANP) [1] | AC50 [2] | Monkey NPR1 Amax (% of ANP) ([2]; monkey NPR1 CHO-K1 cells) | AC50 [2, 3]
CC[C@H]([C@H]1CC[C@H](C(=O)O)CC1)N(C)c1nc2c(c(N[C@@H](CN3C4CCCC3CC(O)C4)c3cnn(CC)c3)n1)C[C@H](c1cccc(F)c1)CC2 (stereo partly drawn) [Compound 79, (1R,4r)-4-((1R)-1-(((6R)-4-(((1R)-1-(1-ethyl-1H-pyrazol-4-yl)-2-((1R,5S)-3-hydroxy-9-azabicyclo[3.3.1]nonan-9-yl)ethyl)amino)-6-(3-fluorophenyl)-5,6,7,8-tetrahydroquinazolin-2-yl)(methyl)amino)propyl)cyclohexane-1-carboxylic acid] | 257 nM | 101.351 % of ANP | 327 nM | 104.610 % of ANP | 
CC[C@@H](Nc1nc2c(c(N[C@@H](CN3CCCC4(CCOC4)C3)c3cnn(CC)c3)n1)C[C@H](c1ccccc1)CC2)[C@H]1CC[C@H](C(=O)O)CC1 (stereo partly drawn) [Compound 109, (1R,4r)-4-((1R)-1-(((6R)-4-(((1R)-1-(1-ethyl-1H-pyrazol-4-yl)-2-(2-oxa-7-azaspiro[4.5]decan-7-yl)ethyl)amino)-6-phenyl-5,6,7,8-tetrahydroquinazolin-2-yl)amino)propyl)cyclohexane-1-carboxylic acid] | 412 nM | 91.101 % of ANP |  | 115.338 % of ANP | 190 nM
CC[C@@H](Nc1nc2c(c(N[C@@H](CN3C4CCCC3CC4)c3sc(C)nc3C)n1)C[C@H](c1cccc(F)c1)CC2)[C@H]1CC[C@H](C(=O)O)CC1 [Compound 24, (1R,4r)-4-((1R)-1-(((6R)-4-(((1S)-2-(8-azabicyclo[3.2.1]octan-8-yl)-1-(2,4-dimethylthiazol-5-yl)ethyl)amino)-6-(3-fluorophenyl)-5,6,7,8-tetrahydroquinazolin-2-yl)amino)propyl)cyclohexane-1-carboxylic acid] | 125 nM | 112.884 % of ANP | 102 nM | 128.837 % of ANP | 
CC[C@@H](Nc1nc2c(c(N[C@@H](CN3C4CCCC3CCC4)c3ccccc3)n1)C[C@H](c1ccccc1)CC2)[C@H]1CC[C@H](C(=O)O)CC1 [Compound 108, (1R,4r)-4-((R)-1-(((R)-4-(((R)-2-((1S,5S)-9-azabicyclo[3.3.1]nonan-9-yl)-1-phenylethyl)amino)-6-phenyl-5,6,7,8-tetrahydroquinazolin-2-yl)amino)propyl)cyclohexane-1-carboxylic acid] | 410 nM | 93.072 % of ANP | 248 nM | 99.706 % of ANP | 
CC[C@@H](Nc1nc2c(c(N[C@@H](CN3CCCC3)c3ccccc3)n1)CN(c1ccccc1)CC2)[C@H]1CC[C@H](C(=O)O)CC1 [Compound 131, (1R,4r)-4-((R)-1-((6-phenyl-4-(((R)-1-phenyl-2-(pyrrolidin-1-yl)ethyl)amino)-5,6,7,8-tetrahydropyrido[4,3-d]pyrimidin-2-yl)amino)propyl)cyclohexane-1-carboxylic acid] | 693 nM | 101.666 % of ANP |  | 109.531 % of ANP | 582 nM
CC[C@H]([C@H]1CC[C@H](C(=O)O)CC1)N(C)c1nc2c(c(N[C@@H](CN3CCCCC3)c3cnn(CC)c3)n1)C[C@H](c1cccc(F)c1)CC2 [Compound 91, (1R,4r)-4-((R)-1-(((R)-4-(((R)-1-(1-ethyl-1H-pyrazol-4-yl)-2-(piperidin-1-yl)ethyl)amino)-6-(3-fluorophenyl)-5,6,7,8-tetrahydroquinazolin-2-yl)(methyl)amino)propyl)cyclohexane-1-carboxylic acid] | 315 nM | 98.135 % of ANP |  | 102.129 % of ANP | 184 nM
